Where no end group is shown, it is not given here.
What was measured:
[1] = tested on: P. falciparum infected erythrocytes expressing PfHRPII-GFP; assay: Endocytic lipid import with the lipid marker FM4-64; type: cell-based, Plasmodium falciparum; conditions: 5 μM PPMP, short-term (30 min)
Method: FM4-64 (N-(3-triethylammoniumpropyl)-4-(6-(4-(diethylamino)phenyl)hexatrienyl)pyridinium dibromide) is a fluorescent lipid marker that has been used to study endocytosis in eukaryotic cells^18. To visualize active uptake of FM4-64 from the erythrocyte plasma membrane during intraerythrocytic growth, trophozoite stage parasites expressing either PfHRPII-GFP or PFD0495c-GFP were incubated in the absence or presence of 5 μM dl-threo-PPMP for 30 min at 37° C. Infected erythrocytes were washed three times in PBS then stained with 16 μM FM4-64 for 30 min at 37° C. Nuclei were stained with 10 μg/mL Hoechst 33342, and cells were washed with PBS three times. Cells were imaged live with DeltaVision Deconvolution microscopy^10.

[2] = tested on: P. falciparum 3D7 ring stage parasites; assay: Transcriptional response to PPMP treatment by microarrays; type: cell-based, Plasmodium falciparum; conditions: 5 μM dl-threo-PPMP, 24 hr, relative to control trophozoites
Method: Ring stage parasites were treated with either 5 μM dl-threo-PPMP or vehicle ([ethanol]f=0.01%) for 24 hr and were harvested for RNA isolation. Untreated ring stage parasites were also harvested. The experimental design served to compare PPMP— to either mock-treated or ring stage transcripts. RNA was isolated according to Invitrogen (Carlsbad, Calif.) protocols using Trizol. First strand cDNA synthesis and hybridizations were performed according to previous protocols^24. Microarray slides were scanned using GenePix 4000B Scanner and analyzed with GenePix Pro 4.1. The statistical program R with the add-in package SMA (http://www. followed by stat.berkeley.edu/%7Eterry/zarray/Software/smacode.html) was used to normalize data^25,26. Only high quality features and those with signal two standard deviations above background were analyzed, leaving 4580 elements from a total of 8088 oligos. Features with a log odds ratio above zero were considered.

[3] = tested on: P. falciparum 3D7 and PFD0495c-GFP clones; assay: Reversibility of treatment with PPMP after 24 hr; type: cell-based, Plasmodium falciparum
Method: Synchronized ring stage parasites at 5-10% pst were incubated with 5 uM PPMP for 24 hr (day 1). Infected erythrocytes were washed with RPMI 1640 three times to remove PPMP then put back into culture. Blood smears were made at days 0, 1, 2, and 3 and stained with Giemsa. Parasites were fed fresh media every 24 hr. Rings, trophozoites and schizonts were enumerated by a counter who was blinded to sample identity. Both PFD0495c-GFP clones responded to PPMP in the same manner as 3D7. […] When PPMP was washed out, all parasites continued the cell cycle and at day 2 matured to schizonts, which formed new rings by day 3.

[4] = tested on: P. falciparum ring stage parasites; assay: Quantitative RT-PCR of PFD0495c transcript after PPMP treatment; type: cell-based, Plasmodium falciparum; conditions: 5 μM PPMP, 12 and 24 hr of treatment
Method: Quantitative PCR was used to confirm the array results. Parasites were synchronized by successive rounds of percoll and sorbitol. Ring stage parasites were treated with either 5 μM dl-threo-PPMP or vehicle (ethanol=0.01%) for 3, 6, 12, and 24 h. RNA was isolated using Trizol (Invitrogen) and treated with DNAse (Promega) according the manufacturer's recommendations. Integrity of the RNA was confirmed with the 2100 Bioanalyzer (Agilent). First strand cDNA synthesis was initiated by priming 5 ug RNA with 40 ug/mL oligo(dT)12-18 at 65° C. for 5 min then incubating reaction with 0.5 mM dNTPs and 200 U SuperScript reverse transcriptase (Invitrogen) for 60 min at 42° C. The reaction was inactivated by heating to 70° C. for 15 min. […]
Amplification of P. falciparum 18S ribosomal RNA (GI 160642), an endogenous control, was done in parallel (forward 5′-ACAATTGGAGGGCAAGT-′3 (SEQ ID NO:39), reverse 5′-TTGGAGCTGGAATTACC-3′ (SEQ ID NO:40)) to standardize the amount of sample in each well. […] Relative quantification was performed using the comparative method, whereby the amount of PFD0495c was normalized to the endogenous control 18S rRNA. […]

[5] = tested on: P. falciparum 3D7 and PFD0495c-GFP clones; conditions: after 36 h of treatment, previous studies; cited from earlier work
P. falciparum = assay: GST-fusions loaded into resealed erythrocyte ghosts, then infection by Plasmodium falciparum; type: cell-based
From the text: Erythrocytes were loaded with GST cargo and resealed according to previous protocols^15. Schizonts were percoll-purified to >95% purity and mixed with loaded ghosts at 2% parasitemia. Numbers of rings, trophozoites and schizonts were enumerated by a counter who was blinded to sample identity. Parasite morphology was monitored for any differences. Images of blood smears were taken by light microscopy with a Zeiss Axioskop upright microscope and Nuance spectral camera/un-mixing system (Cambridge Research and Instrumentation).

[6] = tested on: P. falciparum 3D7 infected ghosts; assay: Indirect immunofluorescence assay of parasite protein export in infected ghosts; type: cell-based, Plasmodium falciparum; conditions: 10 μM in erythrocyte cytoplasm
Method: Indirect immunofluorescence assay was conducted as described^27. Ghosts that were infected with 3D7 were probed with antibodies to HRPII (Santa Cruz) and MSP1 (MR4) and appropriate secondary antibodies conjugated to FITC or rhodamine. Nuclei were stained with 10 μg/mL Hoechst 33342. Images were captured using DeltaVision Deconvolution microscopy as described^10.

[7] = tested on: TVN of P. falciparum infected ghosts; assay: Visualization of tubovesicular network by BODIPY-Texas Red C5 ceramide staining; type: cell-based, Plasmodium falciparum; conditions: 10 μM in erythrocyte cytoplasm
Method: To visualize TVN membranes, erythrocytes or ghosts infected with indicated P. falciparum strain were washed free of serum and stained with 2.5 μM BODIPY-Texas Red C5 ceramide (N-((4-(4,4-difluoro-5-(2-thienyl)-4-bora-3a,4a-diaza-s-indacene-3-yl)phenoxy)acetyl)sphingosine, Invitrogen) for 15 min at 37° C. Nuclei were stained with 10 μg/mL Hoechst 33342. The cells were washed in RPMI 1640 three times and viewed live by DeltaVision Deconvolution microscopy as described^9.

[8] = 50 μM in resealed erythrocyte ghosts

Compound	internalization of FM4-64 via TVN tubules [1]	PFC0435w transcriptional change (down regulated) [2] [fold]	PFD0495c transcriptional change (upregulated) [2] [fold]	reversibility of effects on parasite growth upon washing out drug ([3]; 5 μM PPMP 24 h, parent line and transgenic clones)	parasite stage after 24 incubation ([3]; 5 uM PPMP, 3D7 and both PFD0495c-GFP clones)	PFD0495c transcript level compared to vehicle control [4]	concentrations inhibiting 50% and 90% parasite growth [5]	effect on invasion (measured as ring formation) (P. falciparum; [8])	effect on trophozoite growth (P. falciparum; [8])	parasitemia on Day 3 (P. falciparum; ghosts loaded with 10 μM)	effect on parasite protein export [6]	effect on tubular-TVN development [7]
CCCCCCCCCCCCCCCC(=O)N[C@H](CN1CCOCC1)[C@H](O)c1ccccc1 (racemic) [PPMP, dl-threo-1-phenyl-2-palmitoyl-3-morpholino-1-propanol]	blocked	~4	~3	completely reversible	remained at the trophozoite stage	significantly up-regulated	low micromolar					
GST-PFD0495cCterm: recombinant form of the C-terminal region of PFD0495c (amino acids 795 to 833) fused to glutathione S-transferase (DLDIDDTLKFQHDQEFLNYFKRYQDFNNQLFDSFRSDDR; also: fused to glutathione S-transferase)								no significant effect	inhibitory	6-7%	no deleterious effect	disrupted
